# Laboratory results from patent publication US8367695B2, “Condensed tetrahydroquinoline derivative and use thereof for medical purposes” (Mitsubishi Tanabe Pharma Corporation, priority 2007, dated 2013).
# pKi: −log10 of the molar value.
# Biological target: T1, human recombinant glucocorticoids receptor (GR) (Homo sapiens, UniProt P04150)
# T1 sequence (P04150 1-777): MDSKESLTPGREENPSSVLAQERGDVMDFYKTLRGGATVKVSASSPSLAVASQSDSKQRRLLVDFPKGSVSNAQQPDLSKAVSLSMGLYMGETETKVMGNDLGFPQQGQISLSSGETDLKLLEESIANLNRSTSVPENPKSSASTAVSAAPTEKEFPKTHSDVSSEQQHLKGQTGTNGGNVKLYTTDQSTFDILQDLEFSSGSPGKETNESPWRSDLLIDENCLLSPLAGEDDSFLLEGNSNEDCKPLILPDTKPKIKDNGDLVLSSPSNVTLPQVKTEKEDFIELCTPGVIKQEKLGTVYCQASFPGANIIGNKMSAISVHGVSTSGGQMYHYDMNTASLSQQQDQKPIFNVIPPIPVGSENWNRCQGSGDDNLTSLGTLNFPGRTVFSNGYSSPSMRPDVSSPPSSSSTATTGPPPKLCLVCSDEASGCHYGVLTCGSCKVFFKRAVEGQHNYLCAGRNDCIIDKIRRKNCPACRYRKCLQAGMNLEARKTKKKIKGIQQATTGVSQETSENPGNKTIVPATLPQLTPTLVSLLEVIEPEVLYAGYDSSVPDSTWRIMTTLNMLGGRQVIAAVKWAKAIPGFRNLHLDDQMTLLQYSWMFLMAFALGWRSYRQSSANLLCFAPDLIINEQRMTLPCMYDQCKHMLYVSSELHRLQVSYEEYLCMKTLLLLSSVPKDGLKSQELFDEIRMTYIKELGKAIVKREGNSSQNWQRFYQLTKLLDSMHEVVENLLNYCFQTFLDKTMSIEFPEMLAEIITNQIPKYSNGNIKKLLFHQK
# Assay: Radioactive ligand binding test, GR cytosol, [3H]-Dex
# Details: not given
# Method: Radioactive Ligand Binding Test Using Cytosols of Human Glucocorticoids Receptor, Progesterone Receptor and Mineralocorticoid Receptor
# Opthalmol. Vis. […] In brief, cytosol preparations of human recombinant glucocorticoids receptor (GR) and human recombinant progesterone receptor-B (PRB) were purchased from Invitrogen (Carlsbad, Calif.), and a cytosol preparation of human recombinant mineralocorticoid receptor (MR) was prepared by our company (Yokohama, JP). MR cDNA was cloned into a baculovirus expression vector and expressed in insect cell Sf9. […] [^3H]-Dexamethasone (Dex, specific activity 91.0 Ci/mmol) was purchased from GE Healthcare (Buckinghamshire, UK), and [^3H]-progesterone (Prog, specific activity 103 Ci/mmol) and [3H]-aldosterone (Ald, specific activity 87.9 Ci/mmol) were each purchased from PerkinElmer (Boston, Mass.). Polypropylene round-bottomed 96 well plate was obtained from ABgene (Epsom, UK). Dimethyl Sulfoxide (DMSO) and hydrochloric acid were obtained from Kanto Chemical (TOKYO, JP). Trizma Base (Tris), Bovine Serum Albumin (BSA) and Sodium tungstate dihydrate were obtained from Sigma Chemicals (St. Louis, Mo.). Dithiothreitol (DTT) and Dextran 70 were obtained from GE Healthcare (Buckinghamshire, UK). Glycerol was obtained from Junsei Chemical (TOKYO, JP). Norit® “SX-II” was obtained from Wako Pure Chemical Industries, Ltd. (Osaka, JP). MeltiLex™, A, Printed Filtermat A and Sample Bag were obtained from PerkinElmer (Boston, Mass.).
# As a buffer for GR binding assay, 25 mM Tris-HCl (4° C., pH 7.4)/1 mM EDTA·2Na/1 mM DTT/0.1% BSA was prepared and used. As buffers for PRB and MR binding assay, 10 mM Tris-HCl (4° C., pH 7.4)/1 mM DTT/0.1% BSA/10% glycerol and 20 mM Tris-HCl (4° C., pH 7.4)/1 mM EDTA·2Na/10% glycerol/20 mM sodium tungstate were respectively prepared and used.
# Compound storage solutions (5-20 mM) were prepared using DMSO. The storage solutions were diluted with DMSO to 0.1 mM (for GR) and 0.3 mM (for PRB and MR), and further diluted 20-fold with distilled water to give solutions. Then, the preparations were diluted to each concentration with 5% DMSO solution. 1% DMSO was present at the time of the binding assay.
# GR, PRB and MR binding reactions were performed in 96 well plate (ABgene). In the case of GR binding assay, [^3H]-Dex (about 5 nM), GR cytosol (concentration of function receptor: about 4 pmol/mL), a test compound and a binding buffer were mixed in a total volume of 50 μL, and the mixture was stood at 4° C. for 30 min or longer. A specific binding was defined to be the difference in the [^3H]-Dex binding between the presence and the absence of 1 μM unlabeled Dex.
# After the reaction, 50 μL of DCC was added to each well and blended. Thereafter, the mixture was stood at 4° C. for 10 min. The plate was applied to high-speed cooling centrifuge under the conditions of 4° C., 2000 rpm, 5 min to perform B/F separation. A given amount of the supernatant was recovered, which was spotted on Filtermat A of 96 well format (PerkinElmer) and rapidly dried at a high temperature.
# Measurement of Inhibition Constant (Ki)
# Ki of the test compound was determined by the following Cheng-Prusoff equation: Ki=IC50/(1+[L*]/Kd) • wherein L* is a concentration of radioactive ligand and Kd is a dissociation constant for radioactive ligand determined by saturation analysis.
row,Compound,pKi
1,"C=CCC1(C)C(=O)C(C)(C)Nc2c1cc(-c1cccc3cc[nH]c13)c1c2OCO1 (stereo not drawn) [Example 78, 6-allyl-4-(1H-indol-7-yl)-6,8,8-trimethyl-6,7,8,9-tetrahydro-[1,3]dioxolo[4,5-h]quinolin-7-one]",7.10

# Same assay, conditions: [3H]-Dex about 5 nM, GR cytosol, 4° C.; Cheng-Prusoff, Kd about 3.1 nM; read-out: GR (Ki: nM)
row,Compound,Ki
1,"CC1(C)Nc2c(cc(-c3ccnc4ncccc34)c3occc23)C(C)(C)C1=O [Example 102, 2,2,4,4-tetramethyl-6-([1,8]naphthyridin-4-yl)-1,2,3,4-tetrahydro-furo[2,3-h]quinolin-3-one]",66 nM
2,"CCC1(C)C(=O)C(C)(C)Nc2c1cc(-c1cccc3nccn13)c1c2CCC1 (stereo not drawn) [Example 58, 4-ethyl-6-(imidazo[1,2-s]pyridin-5-yl)-2,2,4-trimethyl-2,3,4,7,8,9-hexahydro-1H-cyclopenta[h]quinolin-3-one]",12 nM
3,"CC1(C)Nc2c(cc(-c3ccnc4ncccc34)c3c2CCO3)C(C)(C)C1=O [Example 92, 2,2,4,4-tetramethyl-6-([1,8]naphthyridin-4-yl)-1,2,3,4,8,9-hexahydro-furo[2,3-h]quinolin-3-one]",64 nM
4,"C=CCC1(C)C(=O)C(C)(C)Nc2c1cc(-c1cccc3nccn13)c1c2CCC1 (stereo not drawn) [Example 57, 4-allyl-6-(imidazo[1,2-a]pyridin-5-yl)-2,2,4-trimethyl-2,3,4,7,8,9-hexahydro-1H-cyclopenta[h]quinolin-3-one]",14 nM
5,"CC1(C)Nc2c(cc(-c3ccnc4ncccc34)c3c2CCC3)C(C)(C)C1=O [Example 21, 2,2,4,4-tetramethyl-6-([1,8]naphthyridin-4-yl)-2,3,4,7,8,9-hexahydro-1H-cyclopenta[h]quinolin-3-one]",35 nM
6,"CC#CCC1(C)C(=O)C(C)(C)Nc2c1cc(-c1cccc3nccn13)c1c2CCC1 (stereo not drawn) [Example 63, 4-(2-butynyl)-6-(imidazo[1,2-a]pyridin-5-yl)-2,2,4-trimethyl-2,3,4,7,8,9-hexahydro-1H-cyclopenta[h]quinolin-3-one]",27 nM
7,"CC1(C)Nc2c(cc(-c3cccc4ncccc34)c3occc23)C(C)(C)C1=O [Example 101, 2,2,4,4-tetramethyl-6-(quinolin-5-yl)-1,2,3,4-tetrahydro-furo [2,3-h]quinolin-3-one]",35 nM
8,"CC1(C)Nc2c(cc(-c3cncc4nccn34)c3occc23)C(C)(C)C1=O [Example 100, 6-(imidazo[1,2-a]pyrazin-5-yl)-2,2,4,4-tetramethyl-1,2,3,4-tetrahydro-furo[2,3-h]quinolin-3-one]",85 nM
9,"Cc1onc(CO)c1-c1cc2c(c3ccoc13)NC(C)(C)C(=O)C2(C)C [Example 94, 6-(3-hydroxymethyl-5-methylisoxazol-4-yl)-2,2,4,4-tetramethyl-1,2,3,4-tetrahydro-furo[2,3-h]quinolin-3-one]",11 nM
10,"Cc1noc(C)c1-c1cc2c(c3c1OCC3)NC(C)(C)C(=O)C2(C)C [Example 84, 6-(3,5-dimethylisoxazol-4-yl)-2,2,4,4-tetramethyl-1,2,3,4,8,9-hexahydro-furo[2,3-h]quinolin-3-one]",27 nM
11,"Cc1noc(C)c1-c1cc2c(c3c1OCO3)NC(C)(C)C(=O)C2(C)C [Example 69, 4-(3,5-dimethylisoxazol-4-yl)-6,6,8,8-tetramethyl-6,7,8,9-tetrahydro-[1,3]dioxolo[4,5-h]quinolin-7-one]",55 nM
12,"CC1(C)Nc2c(cc(-c3cccc4nccn34)c3c2CCO3)C(C)(C)C1=O [Example 88, 6-(imidazo[1,2-a]pyridin-5-yl)-2,2,4,4-tetramethyl-1,2,3,4,8,9-hexahydro-furo[2,3-h]quinolin-3-one]",19 nM
13,"Cc1nnn(C)c1-c1cc2c(c3c1CCC3)NC(C)(C)C(=O)C2(C)C [Example 4, 6-(3,5-dimethyl-3H-[1,2,3]triazol-4-yl)-2,2,4,4-tetramethyl-2,3,4,7,8,9-hexahydro-1H-cyclopenta[h]quinolin-3-one]",53 nM
14,"CC1(C)Nc2c(cc(-c3cccc4ncccc34)c3c2OCO3)C(C)(C)C1=O [Example 72, 6,6,8,8-tetramethyl-4-(quinolin-5-yl)-6,7,8,9-tetrahydro-[1,3]dioxolo[4,5-h]quinolin-7-one]",96 nM
15,"CC1(C)Nc2c(cc(-c3cccc4nccn34)c3c2OCO3)C(C)(C)C1=O [Example 71, 4-(imidazo[1,2-a]pyridin-5-yl)-6,6,8,8-tetramethyl-6,7,8,9-tetrahydro-[1,3]dioxolo[4,5-h]quinolin-7-one]",59 nM
16,"CC1(C)Nc2c(cc(-c3ccnc4cc[nH]c34)c3c2CCC3)C(C)(C)C1=O [Example 13, 2,2,4,4-tetramethyl-6-(1H-pyrrolo[3,2-b]pyridin-7-yl)-2,3,4,7,8,9-hexahydro-1H-cyclopenta[h]quinolin-3-one]",54 nM
17,"CC1(C)Nc2c(cc(-c3cccc4nccn34)c3occc23)C(C)(C)C1=O [Example 98, 6-(imidazo[1,2-a]pyridin-5-yl)-2,2,4,4-tetramethyl-1,2,3,4-tetrahydro-furo[2,3-h]quinolin-3-one]",15 nM
18,"CC1(C)Nc2c(cc(-c3cccc4nncn34)c3c2CCC3)C(C)(C)C1=O [Example 17, 2,2,4,4-tetramethyl-6-([1,2,4]triazolo[4,3-a]pyridin-5-yl)-2,3,4,7,8,9-hexahydro-1H-cyclopenta[h]quinolin-3-one]",53 nM
19,"C=CCC1(C)C(=O)C(C)(C)Nc2c1cc(-c1ccc(O)cc1C)c1c2CCC1 (stereo not drawn) [Example 50, 4-allyl-6-(4-hydroxy-2-methylphenyl)-2,2,4-trimethyl-2,3,4,7,8,9-hexahydro-1H-cyclopenta[h]quinolin-3-one]",97 nM
20,"Cc1noc(C)c1-c1cc2c(c3c1CCC3)NC(C)(C)C(=O)C2(C)C [Example 2, 6-(3,5-dimethylisoxazol-4-yl)-2,2,4,4-tetramethyl-2,3,4,7,8,9-hexahydro-1H-cyclopenta[h]quinolin-3-one]",15 nM
21,"CC1(C)Nc2c(cc(-c3cccc4ncccc34)c3c2CCC3)C(C)(C)C1=O [Example 20, 2,2,4,4-tetramethyl-6-(quinolin-5-yl)-2,3,4,7,8,9-hexahydro-1H-cyclopenta[h]quinolin-3-one]",70 nM
22,"CC1(C)Nc2c(cc(-c3cccc4nccn34)c3c2OC(F)(F)O3)C(C)(C)C1=O [Example 82, 2,2-difluoro-4-(imidazo[1,2-a]pyridin-5-yl)-6,6,8,8-tetramethyl-6,7,8,9-tetrahydro-[1,3]dioxolo[4,5-h]quinolin-7-one]",47 nM
23,"CC1(C)Nc2c(cc(-c3cccc4nccn34)c3c2CCC3)C(C)(C)C1=O [Example 14, 6-(imidazo[1,2-a]pyridin-5-yl)-2,2,4,4-tetramethyl-2,3,4,7,8,9-hexahydro-1H-cyclopenta[h]quinolin-3-one]",11 nM
